# Biological target: T1, thioredoxin reductase (TrxR) (Sus scrofa, UniProt Q9MYY8)
# T1 construct: gene TXNRD1; TrxR purified from porcine brains
# T1 sequence (Q9MYY8 1-499): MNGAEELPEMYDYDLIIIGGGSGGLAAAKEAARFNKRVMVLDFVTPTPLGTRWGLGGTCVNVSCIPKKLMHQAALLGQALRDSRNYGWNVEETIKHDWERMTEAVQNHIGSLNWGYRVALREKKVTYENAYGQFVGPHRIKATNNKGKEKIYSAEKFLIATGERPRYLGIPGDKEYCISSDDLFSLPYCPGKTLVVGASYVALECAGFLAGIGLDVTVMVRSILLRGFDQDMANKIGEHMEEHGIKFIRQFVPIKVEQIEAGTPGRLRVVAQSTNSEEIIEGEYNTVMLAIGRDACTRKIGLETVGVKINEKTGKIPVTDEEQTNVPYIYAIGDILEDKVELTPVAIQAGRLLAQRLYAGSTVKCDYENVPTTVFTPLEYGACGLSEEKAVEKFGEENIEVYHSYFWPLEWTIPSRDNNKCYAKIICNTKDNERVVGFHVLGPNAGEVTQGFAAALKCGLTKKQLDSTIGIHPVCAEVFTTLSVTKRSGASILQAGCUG
# Experiment: DTNB reduction assay with purified NADPH-reduced TrxR; supported by BIAM labeling and TOF LC/MS of C-terminal tetrapeptide adduct
# Assay type: biochemical
structure (smiles),measurement,value
C=C(C)C(=O)OC1CC(C)=CC2(OC)C=C(C)C(O2)C2OC(=O)C(=C)C12 (stereo not shown) [EM23],IC50,7.8 µM

# From publication PMC4872749, “EM23, a natural sesquiterpene lactone, targets thioredoxin reductase to activate JNK and cell death pathways in human cervical cancer cells” (Oncotarget, 2016)
